In paper PMC9403976, “Elucidating the path to Plasmodium prolyl-tRNA synthetase inhibitors that overcome halofuginone resistance” (Nature Communications, 2022):
“And” between values parts separate entries of the source, which are not always exact repeats. Identical values can stand only once. Like-named read-outs stand apart in the source and are kept apart here.

How the values were obtained:
PfcProRS = target: T1, PfcProRS (Plasmodium falciparum, UniProt Q8I5R7); type: binding; conditions: for Normalized response, dose-response replicates (SI Fig 14): replicates 1-3; for PfcProRS -- best Kd: SI Fig 16a, values on -log scale
T1 construct: made in house; host or cells: E. coli SoluBL-21

P. falciparum Dd2-2D4 = test: P. falciparum asexual blood stage (ABS) growth assay, SYBR Green, 72 h, wild-type parasites; type: cell-based, Plasmodium falciparum; conditions: Plasmodium falciparum, DD2; SI Fig 16b; values on -log scale; read-out: ABS - Dd2-2D4 (converted)
Method: This assay was performed as previously described[8]. In short, P. falciparum erythrocytic-stage parasites at 1% parasitemia and 1% hematocrit in RPMI + 0.5% Albumax were seeded at 40 μL/well in 384-well plates with test compounds in triplicate, dose-response format with 10 μM dihydroartemisinin as a kill-control and blank (no compound) wells as a growth-control. […] After 72 h, growth was quantified by measuring fluorescence (Molecular Devices SpectraMax iD5) following SYBR Green 1 staining. Data were analyzed in Excel and plotted in PRISM (V. 8.4.3–9.1.0, GraphPad).

[1] = test system: HFGR-I P. falciparum (elevated proline homeostasis and PfcProRS^L482H); test: P. falciparum ABS growth assay, SYBR Green, 72 h, HFGR-I parasites; type: cell-based, Plasmodium falciparum
From the text: Parasites were maintained under standard culture conditions as described previously[56],[57]. […] The P. falciparum Dd2 cell lines used in this study (Dd2-2D4, halofuginone-induced, and HFGR-I) have previously undergone whole genome sequencing in our labs. They were also routinely assayed and EC50 values determined using the ABS growth assay (see below) with a panel of standard antimalarial compounds, including halofuginone which has differential activity for the three Dd2 lines used in these experiments. Data were cross-referenced for consistency with literature reported values and data previously acquired in the lab.
This assay was performed as previously described. In short, P. falciparum erythrocytic-stage parasites at 1% parasitemia and 1% hematocrit in RPMI + 0.5% Albumax were seeded at 40 μL/well in 384-well plates with test compounds in triplicate, dose-response format with 10 μM dihydroartemisinin as a kill-control and blank (no compound) wells as a growth-control. […] After 72 h, growth was quantified by measuring fluorescence (Molecular Devices SpectraMax iD5) following SYBR Green 1 staining. Data were analyzed in Excel and plotted in PRISM (V. 8.4.3–9.1.0, GraphPad).

HsProRS = HsProRS (Homo sapiens, UniProt P07814); test: TR-FRET ligand displacement assay with tracer MAT379 (CoraFluor-1-Halo and anti-His6 antibody formats); type: binding; design: made in house; host or cells: E. coli SoluBL-21
[2] = HsProRS (KD [nM]) + 100 μM proline mean, + 100 μM proline

T1 sequence (Q8I5R7 249-746): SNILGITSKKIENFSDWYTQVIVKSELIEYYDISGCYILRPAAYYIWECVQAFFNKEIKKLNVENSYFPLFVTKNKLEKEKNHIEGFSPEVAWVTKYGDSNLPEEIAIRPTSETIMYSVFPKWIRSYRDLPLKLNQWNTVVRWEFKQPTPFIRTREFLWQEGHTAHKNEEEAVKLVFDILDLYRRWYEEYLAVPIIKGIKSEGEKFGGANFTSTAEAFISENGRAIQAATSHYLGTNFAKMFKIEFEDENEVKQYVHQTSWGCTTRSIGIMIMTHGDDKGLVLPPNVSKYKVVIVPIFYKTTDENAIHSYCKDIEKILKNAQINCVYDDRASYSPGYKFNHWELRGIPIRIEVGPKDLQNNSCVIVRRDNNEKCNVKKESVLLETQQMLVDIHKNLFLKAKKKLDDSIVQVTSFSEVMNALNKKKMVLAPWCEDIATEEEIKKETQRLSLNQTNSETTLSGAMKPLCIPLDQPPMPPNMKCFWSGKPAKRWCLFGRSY
Chain of HsProRS (P07814 996-1512): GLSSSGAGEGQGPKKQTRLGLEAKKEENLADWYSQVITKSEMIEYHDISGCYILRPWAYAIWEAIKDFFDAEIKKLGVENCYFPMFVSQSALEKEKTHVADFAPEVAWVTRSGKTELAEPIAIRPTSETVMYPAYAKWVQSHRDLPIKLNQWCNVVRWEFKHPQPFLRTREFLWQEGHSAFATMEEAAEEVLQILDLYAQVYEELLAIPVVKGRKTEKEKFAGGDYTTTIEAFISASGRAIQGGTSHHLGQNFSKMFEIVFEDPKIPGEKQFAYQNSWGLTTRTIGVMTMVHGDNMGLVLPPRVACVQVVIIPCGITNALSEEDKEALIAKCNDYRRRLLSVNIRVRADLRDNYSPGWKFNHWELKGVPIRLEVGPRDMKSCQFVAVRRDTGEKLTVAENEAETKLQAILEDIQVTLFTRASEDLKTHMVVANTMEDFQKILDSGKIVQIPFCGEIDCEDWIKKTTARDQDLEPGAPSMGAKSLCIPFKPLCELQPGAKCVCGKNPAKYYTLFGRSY

Row | Structure (SMILES) | Normalized response, dose-response replicates (SI Fig 14) (PfcProRS; Log[inhibitor] (M) -5.000) | Normalized response, dose-response replicates (SI Fig 14) (PfcProRS; Log[inhibitor] (M) -5.301) | Normalized response, dose-response replicates (SI Fig 14) (PfcProRS; Log[inhibitor] (M) -5.601) | Normalized response, dose-response replicates (SI Fig 14) (PfcProRS; Log[inhibitor] (M) -5.904) | Normalized response, dose-response replicates (SI Fig 14) (PfcProRS; Log[inhibitor] (M) -6.208) | Normalized response, dose-response replicates (SI Fig 14) (PfcProRS; Log[inhibitor] (M) -6.509) | Normalized response, dose-response replicates (SI Fig 14) (PfcProRS; Log[inhibitor] (M) -6.796) | Normalized response, dose-response replicates (SI Fig 14) (PfcProRS; Log[inhibitor] (M) -7.108) | Normalized response, dose-response replicates (SI Fig 14) (PfcProRS; Log[inhibitor] (M) -7.409) | Normalized response, dose-response replicates (SI Fig 14) (PfcProRS; Log[inhibitor] (M) -7.710) | Normalized response, dose-response replicates (SI Fig 14) (PfcProRS; Log[inhibitor] (M) -8.000) | Normalized response, dose-response replicates (SI Fig 14) (PfcProRS; Log[inhibitor] (M) -8.301) | Normalized response, dose-response replicates (SI Fig 14) (PfcProRS; Log[inhibitor] (M) -8.602) | Normalized response, dose-response replicates (SI Fig 14) (PfcProRS; Log[inhibitor] (M) -9.000) | Normalized response, dose-response replicates (SI Fig 14) (PfcProRS; Log[inhibitor] (M) -9.301) | PfcProRS -- best Kd (PfcProRS) | EC50 (P. falciparum Dd2-2D4) | Kd (HsProRS; [2]) | further results
1 | NCCCCCC(=O)NC1CCN(C(=O)Nc2nccnc2C(=O)NC2Cc3ccccc3C2)CC1 [compound 42] | 2.49E-01 and 1.76E-01 and 2.08E-01 | 3.00E-01 and 2.27E-01 and 1.95E-01 | 3.22E-01 and 3.31E-01 and 4.26E-01 | 5.98E-01 and 5.09E-01 and 6.07E-01 | 6.69E-01 and 7.19E-01 and 7.06E-01 | 8.50E-01 and 8.42E-01 and 7.76E-01 | 8.57E-01 and 7.95E-01 and 8.50E-01 | 9.38E-01 and 9.24E-01 and 9.33E-01 | 8.48E-01 and 9.09E-01 and 8.32E-01 | 1.01E+00 and 1.02E+00 and 9.56E-01 | 9.91E-01 and 1.13E+00 and 9.71E-01 | 9.70E-01 and 1.02E+00 and 1.00E+00 | 1.01E+00 and 9.47E-01 and 9.02E-01 | 1.03E+00 and 8.54E-01 and 9.74E-01 | 1.02E+00 and 9.76E-01 and 9.47E-01 | 6.530 | 3120 nM | 780 nM | dose-response value, Replicates 1-3 (SI Fig 2f) ([1]; Log[inhibitor] (M) -8.699): 97; Kd (HsProRS; HsProRS (KD [nM]) mean, no added proline/ATP (-)): 674 nM
2 | CC(C)(C)OC(=O)NCCCCCC(=O)NC1CCN(C(=O)Nc2nccnc2C(=O)NC2Cc3ccccc3C2)CC1 [compound 41] | 2.54E-01 and 1.79E-01 and 1.37E-01 | 2.59E-01 and 1.90E-01 and 1.97E-01 | 2.56E-01 and 2.59E-01 and 2.72E-01 | 5.14E-01 and 5.00E-01 and 4.61E-01 | 7.49E-01 and 5.18E-01 and 5.00E-01 | 8.38E-01 and 7.48E-01 and 7.12E-01 | 9.37E-01 and 8.75E-01 and 9.23E-01 | 9.89E-01 and 8.01E-01 and 8.98E-01 | 9.10E-01 and 9.82E-01 and 9.58E-01 | 9.67E-01 and 1.08E+00 and 8.83E-01 | 9.89E-01 and 1.01E+00 and 9.34E-01 | 1.15E+00 and 9.52E-01 and 9.87E-01 | 1.13E+00 and 1.02E+00 and 1.04E+00 | 9.78E-01 and 9.94E-01 and 1.01E+00 | 1.02E+00 and 9.71E-01 and 8.87E-01 | 6.740 | 2110 nM | 561 nM | dose-response value, Replicates 1-3 (SI Fig 2f) ([1]; Log[inhibitor] (M) -6.638): 97; Kd (HsProRS; HsProRS - best Kd, SI Fig 16a, values on -log scale): 139 nM
